Data: BindingDB's records for doi:10.7270/Q2222S6W (University of Pittsburgh, 2007)
Counter-ions that a name gives are not always drawn.

Target: Genome polyprotein (West Nile virus, UniProt P06935)
Assay: West Nile NS2B-NS3 proteinase blockers – biochemical, confirmation, dose response (AID 653)

Sequence of Genome polyprotein (P06935 1371-1501 limits assumed): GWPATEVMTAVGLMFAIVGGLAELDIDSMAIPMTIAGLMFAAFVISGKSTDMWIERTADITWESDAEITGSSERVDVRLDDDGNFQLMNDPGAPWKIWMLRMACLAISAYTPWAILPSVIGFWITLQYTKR
Sequence of Genome polyprotein (P06935 1502-2120 limits assumed): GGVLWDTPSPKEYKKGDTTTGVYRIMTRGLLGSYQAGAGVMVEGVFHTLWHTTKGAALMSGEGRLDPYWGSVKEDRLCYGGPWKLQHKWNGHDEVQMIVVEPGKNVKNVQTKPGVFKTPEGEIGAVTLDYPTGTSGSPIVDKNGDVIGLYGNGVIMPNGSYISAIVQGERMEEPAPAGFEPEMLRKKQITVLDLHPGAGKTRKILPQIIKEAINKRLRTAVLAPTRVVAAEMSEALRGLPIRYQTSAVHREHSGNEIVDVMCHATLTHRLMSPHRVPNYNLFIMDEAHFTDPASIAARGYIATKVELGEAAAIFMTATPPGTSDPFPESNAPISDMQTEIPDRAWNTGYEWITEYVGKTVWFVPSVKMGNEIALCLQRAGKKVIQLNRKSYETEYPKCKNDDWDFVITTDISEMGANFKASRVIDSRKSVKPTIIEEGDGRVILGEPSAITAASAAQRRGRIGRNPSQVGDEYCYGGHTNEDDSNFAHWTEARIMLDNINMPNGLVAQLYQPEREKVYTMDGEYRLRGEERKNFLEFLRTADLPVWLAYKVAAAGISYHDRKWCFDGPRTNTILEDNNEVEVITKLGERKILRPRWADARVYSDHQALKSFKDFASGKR

Row | Structure (SMILES) | IC50 [µM]
1 | COc1cccc(CNC(=O)C2CCN(S(=O)(=O)c3ccc4c(c3)CCC(=O)N4)CC2)c1 [1-[(2-keto-3,4-dihydro-1H-quinolin-6-yl)sulfonyl]-N-m-anisyl-isonipecotamide] | > 50
2 | CC(CC1(O)C(=O)N(Cc2ccccc2)c2ccccc21)N=O (configuration not stated) [1-benzyl-3-(2-hydroximinopropyl)-3-hydroxy-oxindole] | > 50
3 | CC(C)n1c(-c2cccnc2)nc2cnccc21 [1-isopropyl-2-(3-pyridyl)imidazo[4,5-c]pyridine] | > 50
4 | Cn1cc(C(=O)NCN2CCCCC2)c2ccccc21 [1-methyl-N-(1-piperidinylmethyl)-3-indolecarboxamide;hydrochloride] | > 50
5 | OC(CNCCCN1CCCCC1)COc1ccccc1 (configuration not stated) [1-phenoxy-3-(3-piperidin-1-ylpropylamino)propan-2-ol;hydrochloride] | > 50
6 | CC1=C(C#N)C(=O)OC(C)(C)C1 [2,2,4-trimethyl-6-oxidanylidene-3H-pyran-5-carbonitrile] | > 50
7 | Cc1cnc(NC(=O)C(C)N2C(=O)C3CC=CCC3C2=O)s1 (configuration not stated) [2-(1,3-diketo-3a,4,7,7a-tetrahydroisoindol-2-yl)-N-(5-methylthiazol-2-yl)propionamide] | > 50
8 | O=C(OCCN1C(=O)c2ccccc2C1=O)c1cc(S(=O)(=O)N2CCOCC2)ccc1F [2-(1,3-dioxoisoindol-2-yl)ethyl 2-fluoro-5-morpholin-4-ylsulfonylbenzoate] | > 50
9 | COc1ccc(OC)c(C2C(C(N)=O)C(C)=Nc3nc(-c4cccc(Cl)c4)nn32)c1 (configuration not stated) [2-(3-chlorophenyl)-7-(2,5-dimethoxyphenyl)-5-methyl-1,7-dihydro-[1,2,4]triazolo[1,5-a]pyrimidine-6-carboxamide] | > 50
10 | CCc1cccc2c(C#N)cn(CC(=O)NCc3ccco3)c12 [2-(3-cyano-7-ethyl-1-indolyl)-N-(2-furanylmethyl)acetamide] | > 50
11 | Cc1cccn2c(=O)c(/C=N/Cc3ccco3)c(Nc3ccc(Cl)cc3)nc12 [2-(4-chloroanilino)-3-(2-furanylmethyliminomethyl)-9-methyl-4-pyrido[1,2-a]pyrimidinone] | > 50
12 | CCC(=O)N1CCc2cc(Br)cc(S(=O)(=O)CC(=O)OC)c21 [2-(5-bromo-1-propionyl-indolin-7-yl)sulfonylacetic acid methyl ester] | > 50
13 | COC(=O)c1c(NC(=O)C2CC2)sc2c1CCCC2 [2-(cyclopropanecarbonylamino)-4,5,6,7-tetrahydrobenzothiophene-3-carboxylic acid methyl ester] | > 50
14 | COc1cccc(NC(=O)CSc2nc3nnc(C)c-3c(N)n2-c2cccc(OC)c2)c1 [2-[4-amino-5-(3-methoxyphenyl)-3-methylpyrazolo[3,4-d]pyrimidin-6-yl]sulfanyl-N-(3-methoxyphenyl)acetamide] | > 50
15 | C=CCn1c(SCC(=O)OC)nc2sc3c(c2c1=O)CCN(C)C3 [2-[(3-allyl-4-keto-7-methyl-6,8-dihydro-5H-pyrido[2,3]thieno[2,4-b]pyrimidin-2-yl)thio]acetic acid methyl ester] | > 50
16 | CCOC(=O)CNC(=O)C(Cc1ccccc1)NS(=O)(=O)c1cccs1 (configuration not stated) [2-[[1-oxo-3-phenyl-2-(thiophen-2-ylsulfonylamino)propyl]amino]acetic acid ethyl ester] | > 50
17 | CCc1nc(N)c(C#N)c(-c2cccn2C)c1C [2-amino-6-ethyl-5-methyl-4-(1-methylpyrrol-2-yl)pyridine-3-carbonitrile] | > 50
18 | CC(C[N+](C)(C)C)OC(N)=O (configuration not stated) [2-aminocarbonyloxypropyl(trimethyl)azanium;chloride] | > 50

Row | Structure (SMILES) | IC50 [µM]
19 | CCOC(=O)c1[nH]c2ccccc2c1NC(=O)CC [3-(1-oxopropylamino)-1H-indole-2-carboxylic acid ethyl ester] | > 50
20 | Brc1cccc(-c2cnc3n2CCCCC3)c1 [3-(3-bromophenyl)-6,7,8,9-tetrahydro-5H-imidaz[1,2-a]azepine;hydrochloride] | > 50
21 | O=S(=O)(c1ccc(Cl)cc1)N1CN2CCN(C2)C1 [3-(4-Chloro-benzenesulfonyl)-1,3,5-triaza-bicyclo[3.2.1]octane] | > 50
22 | CC(=O)N1CCN(C(=O)c2cccc(S(=O)(=O)Nc3ccc(C)cc3)c2)CC1 [3-(4-acetylpiperazine-1-carbonyl)-N-(4-methylphenyl)benzenesulfonamide] | > 50
23 | COc1ccc2[nH]c(C(=O)O)c(CCNC(C)=O)c2c1 [3-[2-(acetylamino)ethyl]-5-methoxy-1H-indole-2-carboxylic acid] | > 50
24 | COc1cccc2cc(-c3csc(CCn4nc(C)cc4C)n3)c(=O)oc12 [3-[2-[2-(3,5-dimethyl-1-pyrazolyl)ethyl]-4-thiazolyl]-8-methoxy-1-benzopyran-2-one] | > 50
25 | O=C(c1cc2ccccc2oc1=O)N1CCN(c2ccc(N3CCOCC3)nn2)CC1 [3-[4-(6-morpholin-4-ylpyridazin-3-yl)piperazin-1-yl]carbonylchromen-2-one] | > 50
26 | CCn1cc(C(=O)Nc2cccc(C(=O)OC)c2)c(=O)c2ccc(C)nc21 [3-[(1-Ethyl-7-methyl-4-oxo-1,4-dihydro-[1,8]naphthyridine-3-carbonyl)-amino]-benzoic acid methyl ester] | > 50
27 | CC(C)NCc1c(O)c(Br)cc2oc3c(c12)CCCC3 [3-bromanyl-1-[(propan-2-ylamino)methyl]-6,7,8,9-tetrahydrodibenzofuran-2-ol] | > 50
28 | CCOC(=O)N1CCN(C2=CC(=O)OC23CCCCC3)CC1 [4-(2-Oxo-1-oxa-spiro[4.5]dec-3-en-4-yl)-piperazine-1-carboxylic acid ethyl ester] | > 50
29 | COc1ccc(N2CCN(C(=O)c3cn(C)c(=O)c4c3c3ccccc3n4C)CC2)cc1 [4-[4-(4-methoxyphenyl)piperazin-1-yl]carbonyl-2,9-dimethyl-pyrido[3,4-b]indol-1-one] | > 50
30 | NC(=O)c1ccc(-n2nnnc2SCc2ccc(F)cc2)cc1 [4-[5-[(4-fluorobenzyl)thio]tetrazol-1-yl]benzamide] | > 50
31 | CCN(CC)CCNC(=O)c1ccc(N)cc1 [4-amino-N-[2-(diethylamino)ethyl]benzamide;hydrochloride] | > 50
32 | CCN(CC(=O)NC(C)C)C(=O)CCNC(=O)c1ccc(Cl)cc1 [4-chloranyl-N-[3-[ethyl-[2-oxidanylidene-2-(propan-2-ylamino)ethyl]amino]-3-oxidanylidene-propyl]benzamide] | > 50
33 | CCOC(=O)C(CC(=O)O)N1CCCCC1 (configuration not stated) [4-ethoxy-4-keto-3-piperidino-butyric acid] | > 50
34 | COc1cc(C)nc(Oc2ccc(OCCOc3ccc(C)cc3)nn2)n1 [4-methoxy-6-methyl-2-[6-[2-(4-methylphenoxy)ethoxy]pyridazin-3-yl]oxy-pyrimidine] | > 50
35 | O=C1NC(=O)C(c2ccccc2)(c2ccccc2)N1 [5,5-DIPHENYLHYDANTOIN SODIUM SALT] | > 50
36 | CNC(=O)c1nnc(Cc2ccc(F)cc2)o1 [5-(4-fluorobenzyl)-N-methyl-1,3,4-oxadiazole-2-carboxamide] | > 50

Now from value to compound:

Row | IC50 [µM] | Structure (SMILES)
37 | > 50 | OC[C@H]1O[C@@H](n2cnc3c(NC4CCCC4)ncnc32)[C@H](O)[C@@H]1O
38 | > 50 | COc1ccc(C2=Nn3c(nnc3-c3ccc(OC)cc3)SC2)cc1
39 | 2.41 | Cc1ccc(S(=O)(=O)n2nc(OC(=O)c3cccs3)cc2N)cc1
40 | 1.65 | Nc1cc(OC(=O)c2ccco2)nn1S(=O)(=O)c1ccc(F)cc1
41 | > 50 | N[C@@H](Cc1ccc(O)c(I)c1)C(=O)O
42 | > 50 | CCCC(=O)Nc1ccc(NC(=O)C23CC4CC(CC(C4)C2)C3)cn1
43 | > 50 | COc1ccccc1-n1c(SCC(=O)N2CCOCC2)nc(O)c(Cc2ccccc2)c1=O
44 | > 50 | CCOC(=O)C1=C[C@]2(CC)CCCN3CCc4c(n1c1ccccc41)[C@@H]32
45 | > 50 | O=C(O)c1cc(-c2ccc(F)cc2F)ccc1O
46 | > 50 | CN1C(=O)N(CN2CCCCC2)C2C1N(C)C(=O)N2CN1CCCCC1 (configuration not stated) [1,6-dimethyl-3,4-bis(1-piperidinylmethyl)-3a,6a-dihydroimidazo[4,5-d]imidazole-2,5-dione]
47 | > 50 | Cc1ccc(NC(=O)C2CCN(S(=O)(=O)c3cccc4nonc34)CC2)nc1 [1-(2,1,3-benzoxadiazol-4-ylsulfonyl)-N-(5-methyl-2-pyridinyl)-4-piperidinecarboxamide]
48 | > 50 | O=C(c1cccs1)N1CCN(C(=O)c2ccco2)c2ccccc2C1 [1-(2-furoyl)-4-(thien-2-ylcarbonyl)-2,3,4,5-tetrahydro-1H-1,4-benzodiazepine]
49 | > 50 | CCOC(=O)C1CCN(S(=O)(=O)c2ccc(C(=O)OC)cc2)CC1 [1-(4-Methoxycarbonyl-benzenesulfonyl)-piperidine-4-carboxylic acid ethyl ester]
50 | > 50 | CCSc1nnc(NC(=O)NCC(F)(F)F)s1 [1-(5-ethylsulfanyl-1,3,4-thiadiazol-2-yl)-3-(2,2,2-trifluoroethyl)urea]
51 | > 50 | Cc1cc(N2CCC(C(=O)NC3CCCCC3)CC2)nc(-c2ccccc2)n1 [1-(6-Methyl-2-phenyl-pyrimidin-4-yl)-piperidine-4-carboxylic acid cyclohexylamide]
52 | > 50 | CCCCNC(=O)NS(=O)(=O)c1ccc(C)cc1 [1-Butyl-3-(p-methylphenylsulfonyl)urea]
53 | > 50 | CC(C)c1nnc(NC(=O)c2c(O)n3c4c(cccc4c2=O)CCC3)s1 [1-Hydroxy-3-oxo-6,7-dihydro-3H,5H-pyrido[3,2,1-ij]quinoline-2-carboxylic acid (5-isopropyl-[1,3,4]thiadiazol-2-yl)-amide]
54 | 34.1 | COc1ccc(NC=C2C(=O)CCCC2=O)cc1 [2-[[(4-methoxyphenyl)amino]methylidene]cyclohexane-1,3-dione]
55 | 1.26 | Nc1cc(OC(=O)c2ccccc2Br)nn1S(=O)(=O)c1ccccc1 [2-bromobenzoic acid (5-amino-1-besyl-pyrazol-3-yl) ester]
56 | 0.297 | COc1ccc(S(=O)(=O)n2nc(OC(=O)c3ccccc3Br)cc2N)cc1 [2-bromobenzoic acid [5-amino-1-(4-methoxyphenyl)sulfonyl-3-pyrazolyl] ester]
57 | 0.11 | COc1ccc(S(=O)(=O)n2nc(OC(=O)c3cccs3)cc2N)cc1 [2-thiophenecarboxylic acid [5-amino-1-(4-methoxyphenyl)sulfonyl-3-pyrazolyl] ester]
